Reference: patent publication US7968097B2, “Identification of Hla-A2-presented T-cell epitopes derived from the oncofoetal antigen-immature laminin receptor protein and uses thereof” (Immatics Biotechnologies GmbH, priority 2005, dated 2011)

How the values were obtained:
[1] = system: peptide-pulsed 51Cr-labelled T2 cells; assay: Cold target inhibition assay; type: cell-based, human
Text: CTL derived from healthy HLA-A*0201^+ individuals were generated using a protocol described elsewhere (Zeis M, Siegel S, Schmitz M et al. Induction of cytotoxic T lymphocytes against hematologic neoplasms by survivin RNA-transfected dendritic cells. J Immunol. 2003; 170, 5391-5397.). For the induction of autologous OFA/ILR, peptide-specific CTL obtained from patients with AML and CLL, CD8^+ T cells were separated from PBMC using immunomagnetic beads (MACS®, Miltenyi, Bergisch-Gladbach, Germany), cultured with autologous OFA/iLR peptide-pulsed fully matured DC and restimulated with autologous peptide-pulsed PBMC in the presence of IL-2 (1 ng/ml, CellConcepts, Weisskirch, Germany). After at least four weekly restimulations, CTL reactivity was determined in a conventional 4 h ^51Chromium release assay. Cold target inhibition assays and antibody blocking experiments were performed as previously described (Zeis M, Siegel S, Schmitz M et al. Induction of cytotoxic T lymphocytes against hematologic neoplasms by survivin RNA-transfected dendritic cells. J Immunol. 2003; 170, 5391-5397.).
A cold target inhibition assay was performed. To examine whether ILR1-specific T cells lyse ILR1 peptide-pulsed T2 cells specifically and in the context of HLA-A*02, cold target inhibition assays were performed as follows: ^51Cr-labelled T2 cells were loaded with peptide in a concentration of 10 microgram peptide/10^6 T2 cells/ml. A total of 2×10^5 unlabelled, T2 cells, which had equally been loaded with the same or a control peptide, were then added in a volume of 50 microliter AIMV to 10^4 peptide-pulsed, ^51Cr-labelled T2 cells. Effector T cells specific for ILR1 were added and a ^51Cr-release assay was performed as described above.
A cold target inhibition assay was performed as described under “T2+ILR1” above.

[2] = system: peptide-pulsed T2 cells; assay: Lysis of peptide-pulsed T2 target cells by peptide-specific CTL (peptide titration); type: cell-based, human

Sequence	competition of cold targets loaded with the peptide for lysis ([1]; hot target ILR1-peptide-pulsed T2, effectors ILR1-specific CTL, 10 microgram peptide/10^6 T2 cells/ml)	competition of cold targets loaded with the peptide for lysis ([1]; hot target ILR2-peptide-pulsed T2, effectors ILR2-specific CTL)	recognition/lysis of T2 cells pulsed with the peptide [2]
LYLKNYRIA (listed as Homo sapiens) [Survivin, reference compound]	neither peptides irrelevant for ILR1-specific CTL (Survivin and ILR2), nor unloaded T2 cells, which display empty HLA-A*02 molecules on their cell surfaces, compete for lysis	neither peptides irrelevant for ILR2-specific CTL (Survivin and ILR1), nor unloaded T2 cells, which display empty HLA-A*02 molecules on their cell surfaces, compete for lysis	–
ILKEPVHGV [HIV peptide, reference compound]	–	–	not recognized
